How the values were obtained:
Huh-7 cells [1] = assay: Intracellular ROS, H2-DCFDA oxidation assay in Huh-7 cells; type: cell-based; conditions: Huh-7, 37° C., 30 min; IITK3001 and IITK3002 20 μM, H2O2 100 μM
Protocol: We used fluorescence imaging-based oxidation of H2-DCFDA by ROS for assessing intracellular oxidative stress. Huh-7 cells were treated at 37° C. for 30 min with IITK3001 and IITK3002 (20 μM), H2O2 (100 μM), ^tertBuOOH (20 μM), NAC (0.5 mM) and 0.1% DMSO as control. Each experiment was conducted in more than two biological replicates with three technical replicates.
b. Effect of Thiols and Ferroptosis Modulators on the Hit Molecules' Antiproliferative Potency: Ferroptosis is directly controlled by the intracellular thiol concentrations in the form of cysteine and glutathione. Several oxidative mechanisms are well-wired in ferroptotic cell death and we set out to investigate the precise molecular mechanism of our lead molecules. Both cysteine and glutathione (GSH) are the enriched thiol-containing small molecule antioxidant system that are essential regulators of redox modulation in cells including ferroptosis. Further, the enzyme glutathione peroxidase 4 (GPX4) is well characterized to specifically quench the lipid peroxide equivalents in cells through the conversion of […] in cells thereby restoring the reduced environment in cells. Therefore, first, we assessed the ability of N-acetylcysteine (NAC) and GSH to suppress our lead molecules antiproliferative activity (FIG. 4a, b). We found a drastic reduction in the molecules' potency with IITK3001 (>1000-fold reduction) and IITK3002 (>500-fold reduction) (FIG. 14a, b). Supporting that, the addition of DL-Buthionine sulfoximine (BSO), an inhibitor of y-glutamylcysteine synthetase (glutathione biosynthesis) combination with our lead molecules potentiated the overall inhibitory capacity (FIG. 14a, b). […] Finally, we assessed the effect of Ferrostain-1 (Fer-1) and Liproxstatin-1 (Lip-1), antioxidants that function by trapping reactive radicals in cells, particularly lipid-peroxide radicals, and preventing the accumulation of lipid peroxides in cells. […] The accumulation of lipid peroxides and overall ROS was also detected using a fluorescence-based H2DCF-DA assay as depicted in FIG. 15. […]

Huh-7 cells [2] = assay: Cell viability, luminescence-based CellTiter-Glo assay, Huh-7 cells; conditions: Homo sapiens, Huh-7, Huh-7 cells, cell viability; read-out: EC50 Huh-7
Protocol: The viability of Huh-7 cells was recorded using a luminescence-based CellTiter-Glo® assay. The screening concentration of the molecules were 10 μM with or without Fer-1 (10 μM) in DMEM media (>0.1% DMSO as control).
Ferroptosis is a unique form of cell death mechanism mediated by the accumulation of lipid peroxides in cells which is distinct from healthy cells' apoptosis, a programmed […] route. We aimed to exploit the induction of ferroptosis in cancer cells using covalent small molecules as a potential strategy for cancer therapeutic development. […] We used various amide bond formation chemistry to construct the library members and these molecules are well characterized by various spectroscopic and mass spectrometry techniques. Once confirmed, these thiol reactive library members were screened in a cancer cell viability assay in combination with ferrostatin-1 (Fer-1), a ferroptosis inhibitor as depicted in FIG. 11. […] We have screened a total of ˜50 electrophilic small molecules to prevent the proliferation of hepatocellular carcinoma (Huh-7 cells) in combination with and without Fer-1. From our initial screening, we identified haloacetamides of 2-aminoalkylbenzophenone as potential ferroptosis inducers as depicted in FIG. 11.
(§1) The viability of screened cancer cells was recorded using a luminescence-based CellTiter-Glo® assay for the ATP quantification. The screening concentration of the molecule ranged from 100/10 μM to 45/4.5 nM with an 8-point-3-fold dilution series in DMEM media (>0.1% DMSO as control). Each experiment was conducted in more than two biological replicates with three technical replicates. The error bar is a representation of standard deviation among the technical replicates.
The viability of screened cancer cells was recorded using a luminescence-based CellTiter-Glo® assay for the ATP quantification. The screening concentration of IITK3002 ranged from 10 μM to 4.5 nM with an 8-point-3-fold dilution series in DMEM media (>0.1% DMSO as control). Each experiment was conducted in more than two biological replicates with three technical replicates. The error bar is a representation of standard deviation among the technical replicates. […]
a. Electrophilic Warhead Optimization: Once we identified 2-benzoylphenyl-a-haloacetamide as the lead scaffold, we have investigated the structure-activity-relationship analysis to precisely capture the effect of various chemical handles of the scaffold and use the knowledge to improve the overall potency and selectivity of this molecule to prevent cancer cell proliferation. First, we changed the haloacetamide electrophilic unit with various other electrophiles with a characteristic high, moderate, and weak reactivity with thiols when compared to chloroacetamide. Therefore, we opted vinylsulfonamide (highly reactivity), acrylamide (moderate reactivity), and phenoxyacetamides (weak reactivity warheads) for incorporation in the place of haloacetamide warhead of the top hit scaffold. Once synthesized, these molecules were evaluated to assess their antiproliferative potency against Huh-7 cells (Table 2). As expected, the introduction of weakly reactive electrophilic warheads, phenoxyactamides, completely lost the activity against Huh-7 cells. […] Perhaps, the secondary interactions of the electrophilic warhead with the target proteins might play additional roles. Therefore, we shifted our focus to optimize the rest of the core scaffold for further SAR analysis. b. Role of N-Substitutions: Next, we synthesized the NH-derivative of haloacetamides to capture the importance of N-alkylation on the activity of our hit molecule. […] Perhaps the hydrogen bonding induced planarity around the warhead influences the molecules' weakened potency. Conversely, the additional flexibility in the lead molecule (tertiary amide) might contribute to the strong antiproliferative activity of the hit molecule. […]

U2OS = assay: Cell viability, CellTiter-Glo assay, U2OS; type: cell-based; conditions: Homo sapiens
Protocol: as §1
(§2) The viability of screened cancer cells was recorded using a luminescence-based CellTiter-Glo® assay for the ATP quantification. The screening concentration of IITK3002 ranged from 10 μM to 4.5 nM with an 8-point-3-fold dilution series in DMEM media (>0.1% DMSO as control). Each experiment was conducted in more than two biological replicates with three technical replicates. The error bar is a representation of standard deviation among the technical replicates.
(§3) a. […] In parallel, we have also synthesized the bromoacetamide (IITK3002) version of the lead molecules which is slightly more reactive with thiol nucleophiles when compared to chlorooacetamide warheads as depicted in FIG. 13. […] In addition, we also evaluated the molecules' antiproliferative potency against a panel of twelve different cancer phenotypes. The set of cancer cell lines included liver, breast, colon, myeloma, bone, blood, skin, brain and prostate lineages (FIG. 2, 3, Table 1).

PC3 = assay: Cell viability, CellTiter-Glo assay, PC3; type: cell-based; conditions: Homo sapiens, PC-3, PC3, cell viability
Protocol: as §1, §2, §3

22Rv1 = assay: Cell viability, CellTiter-Glo assay, 22Rv1; type: cell-based; conditions: Homo sapiens, 22Rv1, 22Rv1, cell viability
Protocol: as §1, §2, §3

Huh-7 cells [3] = assay: Combination cell viability experiments with thiols, ferroptosis modulators and cell death inhibitors in Huh-7 cells; type: cell-based; conditions: combination with GSH, NAC, BSO, Fer-1, deferoxamine, RSL3, FIN56, Erastin, QVD-OPh, necrostatin-1; Huh-7 and 4T1
Protocol: FIG. 14 depicts a combination experiment indicates the involvement of thiol modulation by IITK3001/IITK3002 on the viability of Huh-7 and 4T1 cells, in accordance with an embodiment of the present invention. The viability of screened cancer cells was recorded using a luminescence-based CellTiter-Glo® assay for the ATP quantification. The screening concentration of (a) IITK3001 and (b) IITK3002 ranged from 10 uM to 4.5 nM with an 8-point-3-fold dilution series in DMEM medium (>0.1% DMSO as control). For combination experiments, 500 μM of NAC or glutathione and 25 μM of BSO were used. Each experiment was conducted in more than two biological replicates with three technical replicates. The error bar is a representation of standard deviation among the technical replicates.
(§4) FIG. 16 depicts ferroptosis induction as a cell death mechanism is established for IITK3001 using combination experiments with ferroptosis inducers and inhibitors, in accordance with an embodiment of the present invention. The screening concentration of (a) IITK3001 and (b) IITK3002 ranged from 10 μM to 4.5 nM with an 8-point-3-fold dilution series in DMEM medium (>0.1% DMSO as control). For combination experiments, Ferrostain-1 (10 μM),Deferoxamine (3 μM), RSL3 (10 nM), FIN56 (30 nM), glutamine (0.5 mM), glutamic acid (0.5 mM), Erastin (0.5 μM) were used. Each experiment was conducted in more than two biological replicates with three technical replicates. The error bar is a representation of standard deviation among the technical replicates.
as §4, with “18” for “16”, “IITK3002” for “IITK3001”, “of” for “of (a) IITK3001 and (b)”, “μM), Deferoxamine” for “μM),Deferoxamine”
FIG. 20 depicts combining apoptosis and necroptosis inhibitors ruled out the possibility of respective cell death mechanisms upon treatment with IITK3001 or IITK3002 in Huh-7 and 4T1 cells, in accordance with an embodiment of the present invention. The screening concentration of IITK3001/IITK3002 ranged from 10 μM to 4.5 nM with an 8-point-3-fold dilution series in DMEM medium (>0.1% DMSO as control). For combination experiments, QVD-OPh and Necrsotatin-1 (10 μM) were used. Each experiment was conducted in more than two biological replicates with three technical replicates. The error bar is a representation of standard deviation among the technical replicates.
FIG. 22 depicts ferroptosis induction was established for IITK3003 using combination experiments in Huh-7 cells, in accordance with an embodiment of the present invention. The screening concentration of IITK3002 ranged from 10 uM to 4.5 nM with an 8-point-3-fold dilution series in DMEM medium (>0.1% DMSO as control). For combination experiments, Ferrostain-1 ([…]), Deferoxamine (3 μM), RSL3 (10 nM), FIN56 (30 nM), glutamine (0.5 mM), glutamic acid (0.5 mM), Erastin (0.5 μM) were used. Each experiment was conducted in more than two biological replicates with three technical replicates. The error bar is a representation of standard deviation among the technical replicates.
FIG. 24 depicts ferroptosis induction was established for IITK3004 using combination experiments in Huh-7 cells, in accordance with an embodiment of the present invention. The screening concentration of the molecules (a) IITK3001 and (b) IITK3002 ranged from 10 μM to 4.5 nM with a 8-point-3-fold dilution series. […]

| Compound | intracellular ROS, H2DCF-DA fluorescence intensity (Huh-7 cells [1]) | EC50 (Huh-7 cells [2]) | EC50 (U2OS) | EC50 (PC3) | EC50 (22Rv1) | cell death mechanism from combination experiments (Huh-7 cells [3]) |
| --- | --- | --- | --- | --- | --- | --- |
| OO [Hydrogen peroxide, reference compound] | drastic enhancement in the fluorescence intensity | – | – | – | – | – |
| C#CCN(C(=O)CBr)c1ccccc1C(=O)c1ccccc1 [IITK3004, N-(2-benzoylphenyl)-2-bromo-N-(prop-2-yn-1-yl)acetamide] | – | 4.64 nM | 370 nM | 130 nM | 120 nM | exceptionally selective ferroptosis inducers |
